This note sets out measurements from US20100190747A1, “Fused ring compound and use thereof” (priority 2009, published 2010).

The structures appear in SMILES notation.

The target of one assay is T1, delta-5-desaturase (Rattus norvegicus, UniProt Q920R3).
T1 construct: the microsomal fraction of a rat river (10 μl), which had been diluted to 3 mg/ml; from tissue; host or cells: rat liver microsomal fraction
T1 sequence (Q920R3 whole entry): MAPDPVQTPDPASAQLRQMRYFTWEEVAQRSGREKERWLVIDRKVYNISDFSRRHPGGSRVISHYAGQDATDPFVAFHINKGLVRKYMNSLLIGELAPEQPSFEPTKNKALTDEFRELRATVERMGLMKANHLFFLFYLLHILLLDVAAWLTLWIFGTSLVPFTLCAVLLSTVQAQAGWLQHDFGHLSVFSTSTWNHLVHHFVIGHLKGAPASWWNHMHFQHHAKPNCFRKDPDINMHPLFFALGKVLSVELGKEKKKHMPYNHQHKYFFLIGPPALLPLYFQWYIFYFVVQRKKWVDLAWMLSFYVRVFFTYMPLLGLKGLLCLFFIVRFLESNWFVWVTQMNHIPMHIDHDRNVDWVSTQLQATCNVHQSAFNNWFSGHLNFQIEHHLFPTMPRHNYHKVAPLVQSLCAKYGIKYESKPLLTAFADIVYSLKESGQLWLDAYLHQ
The experiment in a line: Inhibitory activity on delta-5-desaturase (rat liver microsomal fraction, 14C-eicosatrienoic acid, TLC). The class given is biochemical. As to conditions: test compound at 10 μM, room temperature, 120 minutes. How it is done:
An inhibitory activity of a test compound on delta-5-desaturase was measured according to the method described herein below. To a DMSO solution of the test compound which had been previously prepared, secondary dilution was carried out by using a buffer (300 mM NaH2PO4 [pH 7.4], 450 mM KCl, 30 mM NaF, 9 mM MgCl2, 4.5 mM glutathione [reduced form], 0.3% BSA [fatty acid free, SIGMA]). This diluent compound (10 μl) was added in a 96-well deep well block made of polypropylene, and then the microsomal fraction of a rat river (10 μl), which had been diluted to 3 mg/ml by using a microsome buffer (10 mM Tris-HCl [pH 7.4], 1 mM EDTA, and 250 mM sucrose), was added thereto. The enzyme reaction was initiated by adding 10 μl of 9 mM NADH, 9 mM ATP, 0.9 mM CoA and 10 μCi/ml (8E,11E,14E)-(1-^14C)eicosa-8,11,14-trienoic acid (PerkinElmer Inc.). The enzyme reaction was carried out at room temperature for 120 minutes, and then terminated by addition of 2.5 M NaOH (10 μl). Upon the completion of the reaction, the plate was covered with plate seal and incubated overnight in a dry heater of which temperature was set at 55° C. for saponification. Based on Bligh & Dyer method which had been described in a known document, Canadian Journal of Biochemistry and Physiology (Can. J. Biochem. Physiol.), Vol. 37, page 911, 1959), the solvent extraction of fatty acid was carried out by adding 200 μl of formic acid:methanol:chloroform (1:6:3), keeping the mixture as a single layer for a while, stirring the mixture to a sufficient level, and adding 120 μl of pure water to separate the mixture into two layers. 10 μl of the bottom chloroform layer was spotted on a reverse phase TLC plate (RP-18, 1154230001, Merck Japan, Ltd.) and then developed with acetonitrile:pure water:acetic acid (95:4.5:0.5). The TLC plate obtained after drying was transferred to an Imaging Plate (Fuji Photo Film Co., Ltd.) for more than 5 hours. Detection was carried out by using BAS-5000 (Fuji Photo Film Co., Ltd.). Numerization of thus-obtained image was carried out by using Multi Gauge Ver 2.3 (Fuji Photo Film Co., Ltd.) and an inhibitory ratio (%) of the test compound at 10 μM on delta-5-desaturase was obtained.
Turning to `CC(C)S(=O)(=O)CCCSc1nc2cc[nH]c2c(=O)n1-c1ccc(OCC2CC2)cc1` [Example 164, 3-[4-(Cyclopropylmethoxy)phenyl]-2-({3-[(1-methylethyl)sulfonyl]propyl}sulfanyl)-3,5-dihydro-4H-pyrrolo[3,2-d]pyrimidin-4-one], the inhibition at 10 µM came out at 101%.

For the molecule `O=C(CCCSc1nc2cc[nH]c2c(=O)n1-c1ccc(OCC(F)(F)F)cc1)N1CCOCC1` [Example 109, 2-[(4-Morpholin-4-yl-4-oxobutyl)sulfanyl]-3-[4-(2,2,2-trifluoroethoxy)phenyl]-3,5-dihydro-4H-pyrrolo[3,2-d]pyrimidin-4-one], the inhibition at 10 µM worked out at 101%.

Turning to `O=C1Cc2c(nc(OCCC(F)(F)F)n(-c3ccc(OCC(F)(F)F)cc3)c2=O)N1` [Example 341, 3-[4-(2,2,2-Trifluoroethoxy)phenyl]-2-(3,3,3-trifluoropropoxy)-5,7-dihydro-3H-pyrrolo[2,3-d]pyrimidine-4,6-dione], the inhibition at 10 µM worked out at 99%.

Consider `CCOc1nc2[nH]ccc2c(=O)n1-c1ccc(OCC(F)(F)F)cc1` [Example 209, 2-Ethoxy-3-[4-(2,2,2-trifluoroethoxy)phenyl]-3,7-dihydro-4H-pyrrolo[2,3-d]pyrimidin-4-one], for which the inhibition at 10 µM was found to be 99%.

With `N#CCCNC(=O)CCCSc1nc2[nH]ccc2c(=O)n1-c1ccc(OCC2CCC2)cc1` [Example 183, N-(2-cyanoethyl)-4-({3-[4-(cyclobutylmethoxy)phenyl]-4-oxo-4,7-dihydro-3H-pyrrolo[2,3-d]pyrimidin-2-yl}sulfanyl)butanamide], the inhibition at 10 µM was 99%.

On to `N#CCCNC(=O)CCCSc1nc2cc[nH]c2c(=O)n1-c1ccc(OCC2CCC2)cc1` [Example 82, N-(2-cyanoethyl)-4-({3-[4-(cyclobutylmethoxy)phenyl]-4-oxo-4,5-dihydro-3H-pyrrolo[3,2-d]pyrimidin-2-yl}sulfanyl)butanamide], for which the inhibition at 10 µM was 101%.

On to `O=C1Cc2c(nc(OCCC3CC3)n(-c3ccc(OCC(F)(F)F)cc3)c2=O)N1` [Example 319, 2-(2-Cyclopropylethoxy)-3-[4-(2,2,2-trifluoroethoxy)phenyl]-5,7-dihydro-3H-pyrrolo[2,3-d]pyrimidine-4,6-dione], for which the inhibition at 10 µM worked out at 104%.

Turning to `CC(C)Sc1nc2c(c(=O)n1-c1ccc(OCC(F)(F)C(F)(F)F)cc1)CC(=O)N2` [Example 324, 2-[(1-Methylethyl)sulfanyl]-3-[4-(2,2,3,3,3-pentafluoropropoxy)phenyl]-5,7-dihydro-3H-pyrrolo[2,3-d]pyrimidine-4,6-dione], the inhibition at 10 µM was 101%.

Take `O=c1c2cc[nH]c2nc(OCC2CC2)n1-c1ccc(OCC(F)(F)F)cc1` [Example 226, 2-(Cyclopropylmethoxy)-3-[4-(2,2,2-trifluoroethoxy)phenyl]-3,7-dihydro-4H-pyrrolo[2,3-d]pyrimidin-4-one]: the inhibition at 10 µM was found to be 102%.

Turning to `CCOc1ccc(-n2c(SCC(=O)NCCC#N)nc3[nH]ccc3c2=O)cc1` [Example 173, N-(2-cyanoethyl)-2-{[3-(4-ethoxyphenyl)-4-oxo-4,7-dihydro-3H-pyrrolo[2,3-d]pyrimidin-2-yl]sulfanyl}acetamide], the inhibition at 10 µM was found to be 97%.

Take `CS(=O)(=O)CCCSc1nc2c(c(=O)n1-c1ccc(OCC3CC3)cc1)CC(=O)N2` [Example 301, 3-[4-(Cyclopropylmethoxy)phenyl]-2-{[3-(methylsulfonyl)propyl]sulfanyl}-5,7-dihydro-3H-pyrrolo[2,3-d]pyrimidine-4,6-dione]: the inhibition at 10 µM is 99%.

Turning to `O=C1Cc2c(nc(SCCC3CC3)n(-c3ccc(OCC(F)(F)F)cc3)c2=O)N1` [Example 329, 2-[(2-Cyclopropylethyl)sulfanyl]-3-[4-(2,2,2-trifluoroethoxy)phenyl]-5,7-dihydro-3H-pyrrolo[2,3-d]pyrimidine-4,6-dione], the inhibition at 10 µM came out at 101%.

Consider `N#CCCNC(=O)CCCSc1nc2cc[nH]c2c(=O)n1-c1ccc(OCC2CC2(F)F)cc1` (centres unmarked) [Example 95, N-(2-cyanoethyl)-4-[(3-{4-[(2,2-difluorocyclopropyl)methoxy]phenyl}-4-oxo-4,5-dihydro-3H-pyrrolo[3,2-d]pyrimidin-2-yl)sulfanyl]butanamide], for which the inhibition at 10 µM is 100%.

Turning to `CCOCCOCCSc1nc2[nH]ccc2c(=O)n1-c1ccc(OCC(F)(F)F)cc1` [Example 192, 2-{[2-(2-Ethoxyethoxy)ethyl]sulfanyl}-3-[4-(2,2,2-trifluoroethoxy)phenyl]-3,7-dihydro-4H-pyrrolo[2,3-d]pyrimidin-4-one], the inhibition at 10 µM worked out at 101%.

As to `O=c1c2cc[nH]c2nc(SC(F)(F)F)n1-c1ccc(OCC(F)(F)F)cc1` [Example 253, 3-[4-(2,2,2-Trifluoroethoxy)phenyl]-2-[(trifluoromethyl)sulfanyl]-3,7-dihydro-4H-pyrrolo[2,3-d]pyrimidin-4-one], the inhibition at 10 µM amounted to 98%.

Turning to `O=c1c2[nH]ccc2nc(SCCOC2CCOCC2)n1-c1ccc(OCC(F)(F)F)cc1` [Example 159, 2-{[2-(Tetrahydro-2H-pyran-4-yloxy)ethyl]sulfanyl}-3-[4-(2,2,2-trifluoroethoxy)phenyl]-3,5-dihydro-4H-pyrrolo[3,2-d]pyrimidin-4-one], the inhibition at 10 µM was determined as 99%.

Consider `CCOCCCSc1nc2cc[nH]c2c(=O)n1-c1ccc(OCC2CC2)cc1` [Example 139, 3-[4-(Cyclopropylmethoxy)phenyl]-2-[(3-ethoxypropyl)sulfanyl]-3,5-dihydro-4H-pyrrolo[3,2-d]pyrimidin-4-one], for which the inhibition at 10 µM was found to be 101%.

Take `O=C1Cc2c(nc(SCC3CCC3)n(-c3ccc(OCC(F)(F)F)cc3)c2=O)N1` [Example 296, 2-[(Cyclobutylmethyl)sulfanyl]-3-[4-(2,2,2-trifluoroethoxy)phenyl]-5,7-dihydro-3H-pyrrolo[2,3-d]pyrimidine-4,6-dione]: the inhibition at 10 µM was 101%.

Consider `O=c1c2cc[nH]c2nc(SC(F)F)n1-c1ccc(OCC(F)(F)F)cc1` [Example 223, 2-[(Difluoromethyl)sulfanyl]-3-[4-(2,2,2-trifluoroethoxy)phenyl]-3,7-dihydro-4H-pyrrolo[2,3-d]pyrimidin-4-one], for which the inhibition at 10 µM was determined as 103%.

For `O=C(CCCSc1nc2cc[nH]c2c(=O)n1-c1ccc(OCC(F)(F)F)cc1)NCC(F)(F)F` [Example 75, 4-({4-Oxo-3-[4-(2,2,2-trifluoroethoxy)phenyl]-4,5-dihydro-3H-pyrrolo[3,2-d]pyrimidin-2-yl}sulfanyl)-N-(2,2,2-trifluoroethyl)butanamide], the inhibition at 10 µM came out at 99%.

As for `CCC(CC)Sc1nc2c(c(=O)n1-c1ccc(OCC(F)(F)F)cc1)CC(=O)N2` [Example 340, 2-[(1-Ethylpropyl)sulfanyl]-3-[4-(2,2,2-trifluoroethoxy)phenyl]-5,7-dihydro-3H-pyrrolo[2,3-d]pyrimidine-4,6-dione], the inhibition at 10 µM amounted to 101%.

As to `CCCOc1nc2[nH]ccc2c(=O)n1-c1ccc(OCC(F)(F)F)cc1` [Example 217, 2-Propoxy-3-[4-(2,2,2-trifluoroethoxy)phenyl]-3,7-dihydro-4H-pyrrolo[2,3-d]pyrimidin-4-one], the inhibition at 10 µM turned out to be 99%.

On to `O=c1c2[nH]ccc2nc(SCCCOC2CCOCC2)n1-c1ccc(OCC(F)(F)F)cc1` [Example 158, 2-{[3-(Tetrahydro-2H-pyran-4-yloxy)propyl]sulfanyl}-3-[4-(2,2,2-trifluoroethoxy)phenyl]-3,5-dihydro-4H-pyrrolo[3,2-d]pyrimidin-4-one], for which the inhibition at 10 µM stood at 99%.

On to `N#CCCNC(=O)CCCSc1nc2c(C3CC3)c[nH]c2c(=O)n1-c1ccc(OCC(F)(F)F)cc1` [Example 170, N-(2-cyanoethyl)-4-({7-cyclopropyl-4-oxo-3-[4-(2,2,2-trifluoroethoxy)phenyl]-4,5-dihydro-3H-pyrrolo[3,2-d]pyrimidin-2-yl}sulfanyl)butanamide], for which the inhibition at 10 µM was found to be 101%.

As to `CCSc1nc2[nH]ccc2c(=O)n1-c1ccc(OCC(F)(F)C(F)(F)F)cc1` [Example 249, 2-(Ethylsulfanyl)-3-[4-(2,2,3,3,3-pentafluoropropoxy)phenyl]-3,7-dihydro-4H-pyrrolo[2,3-d]pyrimidin-4-one], the inhibition at 10 µM amounted to 100%.

The assay is the same for the next values; noted with them: test compound at 10 μM, room temperature, 120 minutes, 10 µM.
As for `O=c1c2cc[nH]c2nc(OC2CCC2)n1-c1ccc(OCC(F)(F)F)cc1` [Example 283, 2-(Cyclobutyloxy)-3-[4-(2,2,2-trifluoroethoxy)phenyl]-3,7-dihydro-4H-pyrrolo[2,3-d]pyrimidin-4-one], the “Inhibitory activity at 10 μM (%)” value was 101%.
